Laboratory results as given in ChEMBL document CHEMBL1201862, “PubChem BioAssay data set” (2004).
Each block holds one compound with its values, some of them ahead of it. Activity calls are given as the source filed them.

Key:
Melanocortin receptor 4 = Melanocortin receptor 4 (Homo sapiens, UniProt P32245); format: functional, cell-based;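 note: Cell-based assay with luminescence read-out, confirmatory dose-response testing for agonist activity of biased ligands at MC4R; human U2OS cells with tagged receptor and beta-arrestin; potency of agonists that increase receptor coupling to beta-arrestin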
Chain of Melanocortin receptor 4 (P32245 whole entry): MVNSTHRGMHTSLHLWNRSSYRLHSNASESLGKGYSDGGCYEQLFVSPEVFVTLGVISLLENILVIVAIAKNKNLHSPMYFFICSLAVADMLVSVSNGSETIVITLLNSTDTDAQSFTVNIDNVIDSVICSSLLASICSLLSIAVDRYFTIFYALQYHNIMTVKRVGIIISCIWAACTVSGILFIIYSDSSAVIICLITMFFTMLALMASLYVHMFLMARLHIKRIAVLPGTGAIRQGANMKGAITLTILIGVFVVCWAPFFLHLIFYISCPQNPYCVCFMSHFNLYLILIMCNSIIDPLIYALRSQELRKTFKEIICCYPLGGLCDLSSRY

[1] = molecular target: T1, High affinity choline transporter 1 (Homo sapiens, UniProt Q9GZV3); experiment: CHT inhibitors, dose response, cell-based, 5-point CRC, membrane potential dye (AID 504840); format: functional
T1 sequence (Q9GZV3 whole entry): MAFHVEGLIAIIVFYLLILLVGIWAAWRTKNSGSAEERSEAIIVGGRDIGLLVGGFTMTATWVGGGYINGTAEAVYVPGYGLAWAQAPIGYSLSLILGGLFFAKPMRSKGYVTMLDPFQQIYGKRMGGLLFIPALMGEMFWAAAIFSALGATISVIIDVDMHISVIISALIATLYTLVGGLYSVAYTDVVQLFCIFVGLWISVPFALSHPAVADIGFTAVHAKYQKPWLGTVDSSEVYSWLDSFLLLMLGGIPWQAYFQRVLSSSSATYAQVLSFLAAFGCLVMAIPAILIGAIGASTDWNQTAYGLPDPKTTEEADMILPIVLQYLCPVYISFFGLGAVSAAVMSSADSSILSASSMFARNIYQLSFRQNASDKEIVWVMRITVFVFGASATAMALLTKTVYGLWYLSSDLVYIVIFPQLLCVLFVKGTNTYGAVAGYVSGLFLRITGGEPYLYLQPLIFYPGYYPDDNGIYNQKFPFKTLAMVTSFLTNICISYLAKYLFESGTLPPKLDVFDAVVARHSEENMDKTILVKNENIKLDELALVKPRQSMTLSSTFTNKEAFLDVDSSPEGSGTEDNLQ

[2] = molecular target: T2, Carboxy-terminal domain RNA polymerase II polypeptide A small phosphatase 1 (Homo sapiens, UniProt Q9GZU7); experiment: inhibitors of CTDSP1, concentration-response testing, biochemical assay, absorbance-based, actives from ultra-high-throughput screening (AID 540297); format: functional
T2 sequence (Q9GZU7 whole entry): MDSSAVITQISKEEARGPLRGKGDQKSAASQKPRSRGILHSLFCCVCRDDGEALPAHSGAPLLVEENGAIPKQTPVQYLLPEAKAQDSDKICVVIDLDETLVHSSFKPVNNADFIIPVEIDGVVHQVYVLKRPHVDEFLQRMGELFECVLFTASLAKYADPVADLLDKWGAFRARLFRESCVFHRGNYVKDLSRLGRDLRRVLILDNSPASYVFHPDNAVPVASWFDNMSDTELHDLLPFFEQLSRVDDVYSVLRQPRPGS

[3] = NIH-3T3 fibroblast cytotoxicity, dose response, cytotoxicity control, cell-based, fluorescence, Alamar Blue, secondary assay (AID 2327); format: functional;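 note: NIH-3T3 mouse fibroblasts cultured with fluconazole at 8 µg/mL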
[4] = C. albicans growth with fluconazole, confirmation, fluorescence, retest (AID 2467); format: functional, cell-based
Streptococcus = experiment: Group A Streptococcus viability loss, dose response, counter-screen for streptokinase expression inhibitor project, luminescence, BacTiterGlo (AID 1915); format: functional, organism-based;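 note: potency for reduction of bacterial viability or growth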
[5] = test system: Streptococcus sp. 'group A'; experiment: growth inhibition of control SK(-) GAS strain, dose response, counter-screen for streptokinase expression inhibitor project, luminescence, kanamycin, BacTiterGlo, confirmation (AID 1900); format: functional, organism-based
[6] = molecular target: T3, Sentrin-specific protease 6 (Homo sapiens, UniProt Q9GZR1); format: functional;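 note: Luminescence-based dose-response confirmatory assay of SENP6 inhibition, following up an ultra-high-throughput screen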
T3 sequence (Q9GZR1 whole entry): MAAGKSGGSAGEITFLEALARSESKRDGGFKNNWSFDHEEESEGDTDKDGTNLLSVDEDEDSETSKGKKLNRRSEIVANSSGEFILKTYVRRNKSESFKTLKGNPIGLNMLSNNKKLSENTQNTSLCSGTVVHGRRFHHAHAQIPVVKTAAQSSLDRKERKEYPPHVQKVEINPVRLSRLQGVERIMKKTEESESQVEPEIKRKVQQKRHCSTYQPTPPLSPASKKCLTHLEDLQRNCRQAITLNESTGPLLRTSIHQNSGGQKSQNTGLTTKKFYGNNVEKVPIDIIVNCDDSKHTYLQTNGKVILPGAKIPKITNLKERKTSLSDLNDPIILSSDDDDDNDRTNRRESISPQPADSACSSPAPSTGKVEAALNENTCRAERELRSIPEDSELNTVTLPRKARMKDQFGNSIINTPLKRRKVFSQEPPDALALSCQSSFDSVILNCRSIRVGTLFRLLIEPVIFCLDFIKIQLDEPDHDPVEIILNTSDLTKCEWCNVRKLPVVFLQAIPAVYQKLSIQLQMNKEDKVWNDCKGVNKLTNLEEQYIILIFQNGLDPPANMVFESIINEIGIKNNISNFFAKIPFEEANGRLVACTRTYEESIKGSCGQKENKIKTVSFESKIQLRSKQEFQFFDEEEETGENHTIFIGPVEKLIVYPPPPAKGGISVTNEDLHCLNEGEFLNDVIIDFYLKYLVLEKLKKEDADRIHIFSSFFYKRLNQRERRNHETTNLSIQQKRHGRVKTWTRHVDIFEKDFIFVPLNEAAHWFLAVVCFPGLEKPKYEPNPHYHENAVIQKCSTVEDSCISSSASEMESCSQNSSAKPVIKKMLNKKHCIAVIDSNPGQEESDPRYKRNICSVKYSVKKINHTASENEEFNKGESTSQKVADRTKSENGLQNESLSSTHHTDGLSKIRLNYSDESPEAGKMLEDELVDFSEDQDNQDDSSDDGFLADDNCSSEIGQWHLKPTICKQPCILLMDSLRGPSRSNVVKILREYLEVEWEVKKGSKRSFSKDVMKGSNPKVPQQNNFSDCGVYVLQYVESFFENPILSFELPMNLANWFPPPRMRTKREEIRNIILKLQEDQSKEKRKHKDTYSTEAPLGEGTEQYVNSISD

[7] = molecular target: T4, Calpain-2 catalytic subunit (Sus scrofa, UniProt P43367); experiment: pig calpain II inhibitor potency, dose response, biochemical, fluorogenic peptide substrate (AID 1420); format: functional
T4 sequence (P43367 whole entry): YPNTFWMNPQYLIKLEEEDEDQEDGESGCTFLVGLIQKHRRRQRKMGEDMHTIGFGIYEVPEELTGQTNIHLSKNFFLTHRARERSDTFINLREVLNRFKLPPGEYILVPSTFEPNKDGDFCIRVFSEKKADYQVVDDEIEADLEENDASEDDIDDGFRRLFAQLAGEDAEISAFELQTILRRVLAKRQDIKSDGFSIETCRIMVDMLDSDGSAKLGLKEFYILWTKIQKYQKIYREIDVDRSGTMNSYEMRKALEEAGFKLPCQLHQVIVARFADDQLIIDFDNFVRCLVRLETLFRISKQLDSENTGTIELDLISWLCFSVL

[8] = molecular target: T5, Sentrin-specific protease 7 (Homo sapiens, UniProt Q9BQF6); format: functional;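 note: Luminescence-based dose-response confirmation of ultra-high-throughput screening hits, measuring inhibition of SENP7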
T5 sequence (Q9BQF6 whole entry): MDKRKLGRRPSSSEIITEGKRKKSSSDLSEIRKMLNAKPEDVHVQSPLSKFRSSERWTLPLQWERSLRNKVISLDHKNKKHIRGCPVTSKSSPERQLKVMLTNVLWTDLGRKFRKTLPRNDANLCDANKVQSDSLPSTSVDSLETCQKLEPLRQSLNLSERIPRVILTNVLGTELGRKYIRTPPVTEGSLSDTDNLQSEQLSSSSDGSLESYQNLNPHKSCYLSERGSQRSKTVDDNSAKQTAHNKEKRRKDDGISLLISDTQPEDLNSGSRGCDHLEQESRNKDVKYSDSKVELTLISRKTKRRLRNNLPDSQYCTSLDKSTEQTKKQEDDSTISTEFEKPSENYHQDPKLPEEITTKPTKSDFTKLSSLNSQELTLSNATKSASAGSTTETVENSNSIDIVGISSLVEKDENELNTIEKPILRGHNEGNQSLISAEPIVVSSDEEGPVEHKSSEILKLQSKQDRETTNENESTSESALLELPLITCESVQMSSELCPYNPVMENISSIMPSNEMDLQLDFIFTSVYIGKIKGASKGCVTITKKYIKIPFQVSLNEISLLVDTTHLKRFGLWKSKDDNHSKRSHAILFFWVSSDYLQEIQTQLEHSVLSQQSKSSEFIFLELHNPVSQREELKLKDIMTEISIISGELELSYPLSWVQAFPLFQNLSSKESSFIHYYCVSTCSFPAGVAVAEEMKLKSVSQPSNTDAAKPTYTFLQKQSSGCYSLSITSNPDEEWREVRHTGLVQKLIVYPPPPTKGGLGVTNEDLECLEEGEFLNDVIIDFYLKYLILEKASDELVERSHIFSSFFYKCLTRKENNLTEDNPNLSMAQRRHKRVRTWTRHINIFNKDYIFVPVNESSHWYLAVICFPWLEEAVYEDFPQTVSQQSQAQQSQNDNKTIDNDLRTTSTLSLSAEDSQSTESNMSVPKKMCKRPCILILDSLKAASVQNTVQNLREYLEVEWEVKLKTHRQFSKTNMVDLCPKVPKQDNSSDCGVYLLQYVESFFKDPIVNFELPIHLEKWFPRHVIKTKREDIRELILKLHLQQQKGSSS

Caspase-3 = molecular target: T6, Caspase-3 (Homo sapiens, UniProt P42574); format: functional;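 note: Dose-response selectivity test against caspase-3 for candidate inhibitors of sentrin-specific proteases (SENPs)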
T6 sequence (P42574 whole entry): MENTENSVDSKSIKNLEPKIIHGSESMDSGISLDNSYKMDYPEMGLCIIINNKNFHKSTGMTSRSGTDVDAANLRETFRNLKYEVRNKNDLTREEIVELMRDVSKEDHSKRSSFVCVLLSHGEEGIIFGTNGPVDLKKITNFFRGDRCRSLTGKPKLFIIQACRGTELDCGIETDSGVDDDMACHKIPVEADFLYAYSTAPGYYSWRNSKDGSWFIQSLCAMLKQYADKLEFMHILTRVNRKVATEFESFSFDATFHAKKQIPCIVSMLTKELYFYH

[9] = molecular target: T7, Sentrin-specific protease 8 (Homo sapiens, UniProt Q96LD8); format: functional;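 note: luminescence read-out of SENP8 inhibition, dose-response confirmation following an ultra-high-throughput screen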
T7 sequence (Q96LD8 whole entry): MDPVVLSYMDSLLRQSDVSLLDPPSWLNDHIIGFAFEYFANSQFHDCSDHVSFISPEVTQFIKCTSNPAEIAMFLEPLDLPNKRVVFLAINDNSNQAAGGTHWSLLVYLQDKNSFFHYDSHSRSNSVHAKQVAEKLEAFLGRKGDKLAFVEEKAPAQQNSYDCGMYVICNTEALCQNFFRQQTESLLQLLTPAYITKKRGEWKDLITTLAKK

BJ [10] = experiment: cytotoxicity toward BJ-TERT fibroblasts, dose response, cell-based, RAS-independent, luminescence (AID 1933); format: functional; conditions: Homo sapiens
BJ [11] = experiment: cytotoxicity toward Ras-transformed BJeLR fibroblasts, dose response, cell-based, alamar blue fluorescence, cherrypicked samples (AID 2631); format: functional; conditions: Homo sapiens;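 note: confirmatory dose-response assay in RAS-dependent BJ fibroblasts engineered with TERT, LT and ST, with cytotoxicity read by fluorescence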
[12] = Luminescence Cell-Based Dose Retest to Confirm Inhibitors of Cancer Stem Cells. [Related pubchem assays (depositor defined):AID2717, AID2721]; format: functional; conditions: Homo sapiens
BJ [13] = experiment: cytotoxicity toward BJ-TERT-LT-ST fibroblasts, dose response, cell-based, RAS-independent, luminescence (AID 1935); format: functional; conditions: Homo sapiens;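 note: BJ fibroblasts immortalized with TERT plus LT and ST oncogenes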
[14] = cytotoxicity toward DRD oncogenic fibroblasts, dose response, cell-based, non-viral oncogenic, luminescence (AID 1934); format: functional; conditions: Homo sapiens
BJ [15] = experiment: cells; format: functional, cell-based; conditions: Homo sapiens
[16] = HepG2 cell cytotoxicity, dose response, cytotoxicity control for Shn3 inhibitor project, CellTiter-Glo, cherry-picked (AID 624134); format: functional, cell-based
[17] = Shn3 3'UTR reporter inhibitors, dose response, cell-based, Clone20 osteoblasts, firefly luciferase, cherry-picked (AID 624132); format: functional;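 note: firefly luciferase luminescence from reporter carrying the Shn3 3'UTR in osteoblasts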

EC50 (Melanocortin receptor 4): > 89.2 µM (inactive)
Compound: CC(=O)Nc1cc(-c2ccccc2)cn2c(-c3ccc(F)c(Cl)c3)cnc12

IC50 [1]: 3.16 µM (active)
Compound: CC1(C)CC(=O)C=C(Nc2cccc(Cl)c2Cl)C1

Compound: N#C/C(=C\c1ccc(OC(=O)c2cccs2)cc1)c1nc2ccccc2[nH]1
IC50 [2]: 11.4 µM (active) | EC50 [3]: 76.2 µM (active) | EC50 [4]: 3.35 µM (active)

Compound: COc1cc(O)c(CC=C(C)C)c(O)c1C(=O)CCc1ccc(O)cc1 [DIHYDROXANTHOHUMOL]
EC50 (Streptococcus): 3.05 µM (active) | EC50 (Melanocortin receptor 4): > 89.2 µM (inactive) | EC50 [5]: 2.79 µM (active) | IC50 [6]: 10 µM (active) | IC50 [7]: 5 µM (not active) | IC50 [8]: 7.82 µM (active) | IC50 (Caspase-3): > 100 µM (inactive) | IC50 [9]: 13.3 µM (active)

Compound: CCc1ccc(CCC(=O)Nc2ncc(Cc3ccccc3Cl)s2)o1
EC50 (BJ [10]): 2.76 µM (active) | EC50 (BJ [11]): 1.83 µM (active) | EC50 (Melanocortin receptor 4): > 89.2 µM (inactive) | AC50 [12]: 0.184 µM (active) | EC50 (BJ [13]): 2.83 µM (active) | EC50 [14]: 3.72 µM (active) | EC50 (BJ [15]): 14 µM (active)

Compound: Cc1ccccc1NC(=O)CSc1nc2ccccc2c(=O)n1C
AC50 [16]: 59.6 µM (active) | AC50 [17]: 7.64 µM (active)
